Measured values reported in patent publication US20060240037A1, “Methods and compositions for the treatment and prevention of degenerative joint disorders” (priority 2003, published 2006).
Structures can show the parent of a compound that is named as a salt.

These molecules were tested on lubricin. Conditions: lubricin expression; primary human synovial fibroblasts; cells lysed after 48-72 hours; each supplement in 6 wells.
Format: cell-based
Protocol: To identify substances having the ability to lubricate synovial joints, we first screened a library of substances for the ability to induce expression and secretion of endogenous lubricin in cultured synovial fibroblasts. A library of nutritional supplements containing 175 natural compounds was made using a natural compound collection. Each supplement was dissolved in water to an approximate concentration of 10 mM. 96-well daughter plates were made and plates were stored at −20° C.
Human synovial fibroblasts were plated the evening of the first day of the assay and grown overnight. In the morning of day 2, a supplement solution was added to each well of the 96-well plate. Each supplement was tested in 6 different wells to provide enough separate measurements to allow a statistical analysis of the results of the assay. After 48-72 hours, cells were lysed using a non-ionic detergent and supernatants containing cellular extracts were collected. Each supernatant was assayed for lubricin expression using any of the two methods described below.
We have developed two methods to measure the expression of lubricin, both of which are based on a sandwich assay. In the first sandwich assay, concanavilin A (a lectin) is used to capture lubricin while peanut agglutinin (a lectin) is used to detect proteins secreted by synovial fibroblasts. In contrast, the second assay relies on a rabbit polyclonal antibody for both the capture and detection of lubricin secreted by fibroblasts. In both assays, purified lubricin was used as a calibrator.
A substance that raised the level of measured lubricin in a significant manner when analyzed by t-test was considered a potentially efficacious substance useful for the present invention. All significant results were repeated in two additional experiments. […] In this regard, the 16 compounds that increased lubricin in the lectin-based assay were the same 16 compounds that increased lubricin levels in the antibody-based assay. […] Compounds that increase lubricin expression in synovial fibroblasts are indicated in Table 1 and the level of increase in lubricin expression is shown in Table 2 and FIG. 2.
Substances from the nutritional supplement library were screened for their ability to stimulate lubricin expression in primary human synovial fibroblasts. Cells were cultured in the presence or absence of each substance and lubricin expression was measured using the two detection assays discussed below.
In both assays, the cellular content of synovial cells was extracted as follows. Following the removal of culture media, cells were washed twice with D-PBS. Cells were first incubated in 500 μL of 1% Triton in D-PBS for five minutes and then mechanically disrupted using a pipette to ensure that all cells detach from the plates. The Triton solution containing the cells was transferred to an eppendorf and stored on ice. Samples were sonicated for three seconds and centrifuged for five minutes. The supernatant containing the cellular extracts was transferred to a fresh tube and tested for lubricin expression.
`CCCCCCCCCCCCCCCCCCCCCCCCCCCCO` [Compound G-5, Octacosanol] was tested, and the “Percent stimulation relative to untreated control Adjusted for background” value was 307%. With `CC(C)(CO)[C@@H](O)C(=O)NCCC(=O)O` [Compound G-35, Pantothenic Acid] the “Percent stimulation relative to untreated control Adjusted for background” value was 154%. For `N[C@@H](CS)C(=O)O` [Compound G-22, L-Cysteine], the “Percent stimulation relative to untreated control Adjusted for background” value was 363%. `Cc1ncc(C[n+]2csc(CCO)c2C)c(N)n1` [Compound G-27, Thiamin HCl] was tested, and the “Percent stimulation relative to untreated control Adjusted for background” value was 267%. Bromelain [Compound G126] was tested, and the “Percent stimulation relative to untreated control Adjusted for background” value was 75%. In the case of `O=c1c(O)c(-c2ccc(O)c(O)c2)oc2cc(O)cc(O)c12` [Compound G-15, Quercetin], the “Percent stimulation relative to untreated control Adjusted for background” value is reported as 118%. For `CSCC[C@H](N)C(=O)O` [Compound G66, L-Methionine], the “Percent stimulation relative to untreated control Adjusted for background” value was 234%. With `C[C@]12CCC(=O)C=C1CC[C@@H]1[C@@H]2CC[C@]2(C)C(=O)CC[C@@H]12` [Compound G-57, Androstenedione] the “Percent stimulation relative to untreated control Adjusted for background” value was 219%.
